# Patent US20250154201A1, “PEPTIDE BINDING TO MESOTHELIN, AND USE THEREOF” (KYUNGPOOK NATIONAL UNIVERSITY INDUSTRY-ACADEMIC COOPERATION …, priority 2022, published 2025)
# Positions of bridges follow the written chain, without caps; N, C: chain ends. Residues, ends and D or L forms follow the SMILES beside them. No end group written: not given here.
# Legend:
# [1] = tested on: pancreatic cancer cell line AsPC-1; assay: in vitro
# Method: (§1) Pancreatic cancer cell line AsPC-1 cells (5×10^3 cells/well in 96-well plates) were cultured in 1% serum medium with various concentrations of MSLN-pep peptide that specifically binds to mesothelin, NSSSVDK control peptide (Ctrl-pep), R7-KLA peptide that induces apoptosis, Abraxane, gemcitabine, and PBS at 37° C. for 24 and 48 hours. Afterwards, CCK-8 Kit (Dojindo, Kumamoto, Japan) reagent was treated, and a reaction was carried out at 37° C. for 2 hours to evaluate cytotoxicity.
# (§2) To determine whether there is cytotoxicity when MSLN-pep binds specifically to mesothelin, the peptide was treated to the pancreatic cancer cell line AsPC-1 at concentrations of 0, 25, 50, 100, and 200 μM, and cell viability was checked for 24 and 48hours.
# in vitro = assay: in vitro
# Method: as §1, §2
# mesothelin = mesothelin (Homo sapiens, UniProt Q13421); assay: immunofluorescence binding to HEK-293T cells transiently transfected with mesothelin-GFP plasmid; assay type: cell-based; design: GFP; host or cells: HEK293T; settings: 10 μM and 25 μM MSLN-pep, 25 μM Ctrl-pep; transfected and untransfected HEK-293T
# Chain of mesothelin (Q13421 with tags, fused parts or gaps): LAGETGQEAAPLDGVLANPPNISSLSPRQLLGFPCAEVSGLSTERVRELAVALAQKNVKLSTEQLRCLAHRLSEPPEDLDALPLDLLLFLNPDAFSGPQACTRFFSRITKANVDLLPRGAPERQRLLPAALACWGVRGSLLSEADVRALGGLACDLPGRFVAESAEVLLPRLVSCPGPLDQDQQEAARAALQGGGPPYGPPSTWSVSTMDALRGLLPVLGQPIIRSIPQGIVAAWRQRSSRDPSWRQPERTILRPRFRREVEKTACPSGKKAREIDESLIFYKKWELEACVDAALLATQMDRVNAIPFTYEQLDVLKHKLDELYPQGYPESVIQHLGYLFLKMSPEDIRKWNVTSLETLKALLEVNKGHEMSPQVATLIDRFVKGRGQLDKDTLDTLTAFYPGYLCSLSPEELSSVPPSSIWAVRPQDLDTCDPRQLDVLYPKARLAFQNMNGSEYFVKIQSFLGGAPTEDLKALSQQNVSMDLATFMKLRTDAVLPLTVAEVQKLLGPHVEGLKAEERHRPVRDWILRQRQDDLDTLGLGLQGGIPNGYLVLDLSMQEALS
# Method: HEK293T cells were transiently transfected using Lipofectamine 3000 (Invitrogen) in 6-well plates according to the manufacturer's protocol. Prior to transfection, 2×10^5 cells were cultured in 6-well plates for 24 hours. To transfect one well, 7.5 μl of Lipofectamine 3000 reagent was diluted in 250 μl of Opti-MEM (Invitrogen) reagent, followed by a reaction at room temperature for 5 minutes. 5 μg of mesothelin-expressing plasmid pCMV6-AC-GFP vector DNA was diluted in 250 μl of Opti-MEM (Invitrogen) reagent, followed by a reaction at room temperature for 5 minutes. The mixture of two solutions were then mixed and reacted at room temperature for 10 minutes (a total of 500 μl per well). The old medium of the cells was immediately removed, and a 500 μl of DNA-transfection reagent-mixture was added to the cells before transfer to the incubator. After 24 hours of culture, the medium was again replaced with a pre-warmed growth medium containing serum. Culture was performed for 48 hours, and the newly inserted protein was expressed in the cells.
# Taken together, it was found via immunofluorescence analysis that MSLN-pep specifically binds to mesothelin.
# [2] = tested on: PANC-1 and AsPC-1 cell lines; assay: analysis of migration (24-transwell); assay type: cell-based, human; settings: 200 μM + 10% FBS; 24 hours
# Method: PANC-1 and AsPC-1 cell lines were cultured using DMEM and RPMI-1640 media with 10% FBS added respectively in the upper chamber of 24-transwell at a concentration of 2×10^4 cells per well. After 24 hours, all the media in the upper chamber of 24-transwells were removed and replaced with DMEM and RPMI-1640 media without addition of 10% FBS to inhibit migratability of cell lines, so as to be in a starvation state. After 24 hours, the experimental group was added with 10% FBS in the lower chamber, and the control was added with 0% FBS in the lower chamber to observe migratability. 3% ACN, 200 μM control peptide (Ctrl-pep), MSLN-pep 25. For 50, 100, and 200 μM groups, the media in the upper chamber of 24-Transwell were removed, each drug was treated by concentration, and 10% FBS was treated in the lower chamber. Each group was cultured at 37° C. for 24 hours, and then the cells were photographed (original magnification, ×100) by concentration of each peptide. Cells were stained with crystal violet (0.1%), and the ImageJ, a computer program, was used for quantitative evaluation.
# (§3) After pancreatic cancer cell lines PANC-1 and AsPC-1 were cultured in 24-transwells, all cells were starved for 24 hours to inhibit cell growth, and then treatment was performed in divided groups of 10% FBS, 0% FBS, 3% ACN+10% FBS, 200 μM NSSSVDK+10% FBS, 25 μM MSLN-pep+10% FBS, 50 μM MSLN-pep+10% FBS, 100 μM MSLN-pep+10% FBS, and 200 μM MSLN-pep+10% FBS.
# [3] = tested on: pancreatic cancer cell lines PANC-1 and AsPC-1; assay: internalization of FITC-labeled peptides (confocal microscopy); assay type: cell-based, human; settings: 25 μM and 50 μM MSLN-pep, 50 uM NSSSVDK; 1 and 2 hours
# Method: To observe the intracellular distribution of the internalized FITC-labeled peptide MSLN-pep, pancreatic cancer cell lines AsPC-1 and PANC-1 cells (2.5×10^5 cell counts) were dispensed on a 4-well chamber slide. After complete adhesion, the cell culture medium was replaced with a fresh medium containing FITC-labeled peptides (25 μM, 50 μM), […], and the cells were washed with PBS 3 times for 3˜5 minutes, followed by fixation (4% paraformaldehyde; PFA) for 5 minutes. Thereafter, washing with PBS was performed. After staining the nucleus with DAPI and mounting on a glass slide with a fading reagent, internalization of FITC-labeled MSLN-pep was observed under confocal microscopy.
# [4] = tested on: PANC-1 and AsPC-1 cell lines; assay: analysis of invasion (Matrigel-coated 24-transwell); assay type: cell-based, human; settings: 200 μM + 10% FBS; 24 hours
# Method: PANC-1 and AsPC-1 cell lines were cultured using DMEM and RPMI-1640 media with 10% FBS added in 100 mm dish each at a concentration of 2×10^6 cells per well. After 24 hours, all media in 100 mm dishes were removed and replaced with DMEM and RPMI-1640 media without addition of 10% FBS to inhibit migratability of cell lines so as to be in a starvation state. After 24 hours, 300 μg/mL of Matrigel was coated on the upper chamber of 24-Transwell. Afterwards, PANC-1 and AsPC-1 cell lines were cultured in the upper chamber at a concentration of 2×10^4 cells in a 100 mm dish, 10% FBS was added to the lower chamber for the experimental group, and 0% FBS was added to the lower chamber for the control group to identify migratability. 3% ACN, 200 μM control peptide (Ctrl-pep), MSLN-pep 25. For 50, 100, and 200 μM groups, each cell line was cultured together in the upper chamber of the 24-Transwell, and 10% FBS was treated in the lower chamber. Each group was cultured at 37° C. for 24 hours, and then the cells were photographed (original magnification, ×100) for each concentration of peptides. Cells were stained with crystal violet (0.1%), and Image J, a computer program, was used for quantitative evaluation.
# as §3
# AsPC-1 tumor = assay: tumor homing of peptides in mice; assay type: in vivo, nude mice; settings: TAMRA-labeled, intravenous, 6 hours circulation; liver, lungs, kidneys
# Method: Pancreatic cancer cell line AsPC-1 cells (1×10^7 cells) were implanted under the skin of nude mice, left until the tumor size reaches about 100 mm^3, and then intravenously injected with 100 μl of 1 mM peptides labeled with a TAMRA fluorescence reagent, followed by circulation for 6 hours. Tumors and organs (liver, lung, and kidney) were separated and treated with paraformaldehyde for fixation and preparation of cryosections. The prepared cryosections were observed under a fluorescence microscope.
# Pancreatic cancer cell line AsPC-1 cells (1×10^7 cells) were implanted under
# the skin of nude mice, left until the tumor size reached about 100 mm^3, and then intravenously injected with MSLN-pep labeled with the TAMRA fluorescence reagent and control peptide (Ctrl-pep), followed by circulation for 6 hours. The tumor and control organs were separated, and cryosections were prepared, followed by observation under a fluorescence microscope.
# [5] = molecular target: T1, human mesothelin (endogenous, on pancreatic cancer cell lines AsPC-1, PANC-1, BxPC-3, MiaPaCa-2) (human, UniProt Q13421 296-598); assay: cell-based or functional assay
# T1 sequence (Q13421 other isoform, or with tags, fused parts or gaps limits assumed): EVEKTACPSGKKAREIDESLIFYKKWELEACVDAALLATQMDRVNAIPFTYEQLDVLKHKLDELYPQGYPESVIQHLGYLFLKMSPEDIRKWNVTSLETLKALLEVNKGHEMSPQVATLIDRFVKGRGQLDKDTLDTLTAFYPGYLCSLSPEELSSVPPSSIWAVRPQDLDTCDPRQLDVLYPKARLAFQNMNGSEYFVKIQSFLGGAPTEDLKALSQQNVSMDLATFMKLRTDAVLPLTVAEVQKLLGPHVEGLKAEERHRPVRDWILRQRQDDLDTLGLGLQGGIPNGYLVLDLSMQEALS
# [6] = molecular target: T1, human mesothelin (endogenous, on …); assay: confocal microscopy on PANC-1 and AsPC-1 cells, 1 and 2 hours
molecule,measurement,setting,value
CC[C@H](C)[C@@H]1NC(=O)[C@H]([C@@H](C)O)NC(=O)[C@@H](N)CSSC[C@@H](C(=O)N[C@@H](CCCCN)C(=O)N[C@@H](CC(C)C)C(=O)N[C@@H](C)C(=O)N[C@@H](CCCCN)C(=O)N[C@@H](CC(C)C)C(=O)N[C@@H](C)C(=O)N[C@@H](CCCCN)C(=O)N[C@@H](CCCCN)C(=O)N[C@@H](CC(C)C)C(=O)N[C@@H](C)C(=O)N[C@@H](CCCCN)C(=O)N[C@@H](CC(C)C)C(=O)N[C@@H](C)C(=O)N[C@@H](CCCCN)C(=O)O)NC(=O)[C@H]([C@@H](C)O)NC(=O)[C@H](CC(C)C)NC(=O)[C@H](CO)NC(=O)[C@H](Cc2c[nH]c3ccccc23)NC(=O)[C@H](CC(C)C)NC1=O [MSLN-pep-KLA] (H-CTILWSLTCKLAKLAKKLAKLAK-OH; disulfide 1-9),"cell viability, comparison between groups","[1]; 0, 6.25, 12.5, 25, 50, 100, and 200 uM, 24 hours",second lowest
same,IC50,in vitro,33 µM
"Nc1ccn([C@@H]2O[C@H](CO)[C@@H](O)C2(F)F)c(=O)n1 [gemcitabine, reference compound]",IC50,"[1]; Homo sapiens, ASPC1, 24 h, read-out: IC50 value (cytotoxicity)",3.3 mg/L
same,viability at 10 µg/mL,"[1]; Homo sapiens, ASPC1, 24 h, read-out: cell viability",≤ 40%
"NSSSVDK [Ctrl-pep, reference compound]",specific binding (immunofluorescence),mesothelin,did not have specific binding
same,migratability compared to treatment of 10% FBS,[2],no difference in the migratability and invasiveness
same,binding and internalization into cells,[3],did not bind to PANC-1 and AsPC-1
same,invasiveness compared to treatment of 10% FBS,[4],no difference in the migratability and invasiveness
same,targeting to control organs (fluorescence microscopy of cryosections),AsPC-1 tumor,barely observed
CTILWSLTCKLAKLAKKLAKLAK (disulfide 1-9) [MSLN-pep-KLA (fusion of CTILWSLTC and apoptotic peptide KLAKLAKKLAKLAK)],"cell viability of AsPC-1 after 24 hours (CCK-8), IC50",[5],33 µM
NSSSVDK (Control peptide) [NSSSVDK control peptide (Ctrl-pep)],binding result,[6],no binding (tested: 50 µM)
